Measured values: US6306636A, “Nucleic acid segments encoding wheat acetyl-CoA carboxylase” (Arch Development Corporation, priority 1997, dated 2001)

Legend:
[1] = system: T1, wheat cytosolic ACCase expressed in yeast; experiment: In vitro inhibition of wheat cytosolic ACCase expressed in yeast (gel-filtered crude extract); type: biochemical
T1 construct: Full length cDNA encoding wheat cytosolic ACCase was assembled; made in house; host or cells: S. cerevisiae haploid gene-replacement strain MJ 1.12 (crude extract, Sephadex G50)
Procedure: (§1) Sethoxydim and Cethoxydim (CGA215684) were obtained from CIBA-GEIGY and haloxyfop was obtained from DowElanco. To measure inhibition in vivo, galactose-dependent strains were grown in YPR containing 0.01% galactose (to A600 of ~0.5) and then diluted (~100 fold) to the same initial density with fresh YPR medium containing 0.01% galactose and varying amounts of herbicide added as 100-fold concentrated stock solutions in DMSO. ACCase activity in vitro was measured using protein extracts prepared as described (Mitchell et al., 1993) from 25-50 ml cultures of yeast strains MJ 1.12 and MG 9.11 grown for 24-40 h. Cells were suspended in one volume of extraction buffer (0.3 M sorbitol, 0.1 M NaCl, 5 mM MgCl2, 10 mM Tris pH 7.4, supplemented with protease inhibitors: aprotinin (6.6 μ/mL), leupeptin (1.5 μ/mL), pepstatin A (3 μ/mL) and chymostatin (1 μg/mL), and vortexed with 2 volumes of glass beads for 5 min at 4° C. 1/200 volume of 100 mM ethanol solution of phenylmethylsulfonyl fluoride was added twice during extraction. The cell debris were removed by centrifugation and the supenatant (~0.5 ml) was loaded immediately on a 20 ml Sephadex G50 column equilibrated with 100 mM KCl, 20 mM Tris/HCl (pH 7.5), 20% glycerol, 7 mM β-mercaptoethanol. […] ACCase activity was measured as described before (Gornicki and Haselkorn, 1993) using aliquots of the column fractions. […]

[2] = system: strain MJ 1.12 expressing wheat cytosolic ACCase; experiment: In vivo growth inhibition of yeast gene-replacement strain expressing wheat cytosolic ACCase; type: cell-based, S. cerevisiae; conditions: for effect on growth of gene-replacement strain (in vivo): MJ 1.12, liquid culture, YPR medium with 0.01% galactose
Procedure: The yeast complex medium for vegetative growth contained 1% Bacto-yeast extract, 2% Bacto-peptone, 0.1% adenine sulfate and was supplemented with the following carbon sources: 2% Dextrose in YPD, 2% Raffinose in YPR, 2% galactose and 2% raffinose in YPRG. The yeast synthetic minimal medium (SD) contained 0.17% yeast nitrogen base, 0.5% ammonium sulfate, 2% dextrose, and was supplemented with various additives required for growth: adenine sulfate (10 mg/L), uracil (20 mg/L), histidine (20 mg/L), leucine (200 mg/L) and/or tryptophane (50 mg/L). The SRG medium is identical to SD, with dextrose replaced by 2% raffinose and 2% galactose. 2% bacto-agar was used in solid media. SPII (2% potassium acetate, supplemented with essential amino acids at 7.5 mg/L) and SPIII (0.1% bacto-yeast extract and 2% bacto-agar added to SPII) media for sporulation are described in (Klapholz and Esposito, 1982; Klapholz et al;. 1985). S. cerevisiae strain W303D-ACC1^ΔLEU2 was also obtained from Dr. S. D. Kohlwein. Yeast cells were transformed as described before (Chen et al., 1992) using Frozen-ELZ kit (Zymo Research, Orange Calif.) according to the manufacturer's protocol and transformants were selected using SD plates lacking a marker amino acid. Sporulation was induced in SPII or SPIII medium at 30° C. for 2-3 days. Dissection of asci was performed as described (Guthrie and Fink, 1991). YPD or YPRG plates were used for vegetative growth of ascospore clones following dissection. Galactose-dependent strains (MJ 6.8, 6.9, 1.12 and 1.13) were grown in YPRG medium and other strains in YPD medium, all at 30° C. To measure galactose induction, the strains were grown for ~24 h in YPR medium until all galactose was exhausted (growth of galactose-dependent strains ceased), and then diluted ~100 fold with YPR medium containing various amounts of galactose.
Sethoxydim and Cethoxydim (CGA215684) were obtained from CIBA-GEIGY and haloxyfop was obtained from DowElanco. To measure inhibition in vivo, galactose-dependent strains were grown in YPR containing 0.01% galactose (to A600 of ~0.5) and then diluted (~100 fold) to the same initial density with fresh YPR medium containing 0.01% galactose and varying amounts of herbicide added as 100-fold concentrated stock solutions in DMSO. ACCase activity in vitro was measured using protein extracts prepared as described (Mitchell et al., 1993) from 25-50 ml cultures of yeast strains MJ 1.12 and MG 9.11 grown for 24-40 h. Cells were suspended in one volume of extraction buffer (0.3 M sorbitol, 0.1 M NaCl, 5 mM MgCl2, 10 mM Tris pH 7.4, supplemented with protease inhibitors: aprotinin (6.6 μ/mL), leupeptin (1.5 μ/mL), pepstatin A (3 μ/mL) and chymostatin (1 μg/mL), and vortexed with 2 volumes of glass beads for 5 min at 4° C. 1/200 volume of 100 mM ethanol solution of phenylmethylsulfonyl fluoride was added twice during extraction. The cell debris were removed by centrifugation and the supenatant (~0.5 ml) was loaded immediately on a 20 ml Sephadex G50 column equilibrated with 100 mM KCl, 20 mM Tris/HCl (pH 7.5), 20% glycerol, 7 mM β-mercaptoethanol. Protein was eluted with the same buffer and stored at -70° C. ACCase activity was measured as described before (Gornicki and Haselkorn, 1993) using aliquots of the column fractions. Herbicides were added to the reaction mixtures (1/10 or 1/20 volume) as a solution in 0.25-0.75 M Tris-HCl, pH8.0 containing 25% DMSO. Wheat germ extract was purchased from Promega.

yeast ACCase = target: T2, yeast ACCase (Saccharomyces cerevisiae, UniProt Q00955); experiment: In vitro inhibition of yeast ACCase (gel-filtered crude extract); type: biochemical, S. cerevisiae
T2 construct: containing one copy of the yeast ACC1 gene (on the chromosome) and expressing ACCase under its own promoter; endogenous in cells; host or cells: S. cerevisiae haploid strain MJ 9.11 (W303D-derived), crude extract, Sephadex G50
Procedure: as §1

[3] = target: T3, wheat plastid ACCase (wheat germ extract) (Triticum aestivum, UniProt O48959); experiment: In vitro inhibition of ACCase in wheat germ extract; type: biochemical; conditions: wheat plastid enzyme in wheat germ extract
T3 construct: mixed homoeologues, some cytosolic ACCase present
Procedure: as §1

[4] = system: strain MJ 9.11 expressing yeast ACCase (ACC1); experiment: In vivo growth inhibition of yeast strain expressing yeast ACCase; type: cell-based, S. cerevisiae; conditions: MJ 9.11, 800 μM inhibitor
Procedure: The yeast complex medium for vegetative growth contained 1% Bacto-yeast extract, 2% Bacto-peptone, 0.1% adenine sulfate and was supplemented with the following carbon sources: 2% Dextrose in YPD, 2% Raffinose in YPR, 2% galactose and 2% raffinose in YPRG. The yeast synthetic minimal medium (SD) contained 0.17% yeast nitrogen base, 0.5% ammonium sulfate, 2% dextrose, and was supplemented with various additives required for growth: adenine sulfate (10 mg/L), uracil (20 mg/L), histidine (20 mg/L), leucine (200 mg/L) and/or tryptophane (50 mg/L). The SRG medium is identical to SD, with dextrose replaced by 2% raffinose and 2% galactose. 2% bacto-agar was used in solid media. SPII (2% potassium acetate, supplemented with essential amino acids at 7.5 mg/L) and SPIII (0.1% bacto-yeast extract and 2% bacto-agar added to SPII) media for sporulation are described in (Klapholz and Esposito, 1982; Klapholz et al;. 1985). […]
Sethoxydim and Cethoxydim (CGA215684) were obtained from CIBA-GEIGY and haloxyfop was obtained from DowElanco. […] ACCase activity in vitro was measured using protein extracts prepared as described (Mitchell et al., 1993) from 25-50 ml cultures of yeast strains MJ 1.12 and MG 9.11 grown for 24-40 h. […] ACCase activity was measured as described before (Gornicki and Haselkorn, 1993) using aliquots of the column fractions. […]

[5] = system: maize ACCase, first minor peak; conditions: 50 μM; first minor peak (Howard and Ridley, 1990); cited from earlier work
[6] = target: T4, enzyme from pea chloroplasts (ACCase) (Pisum sativum, UniProt P18823+Q41008); experiment: In vitro ACCase activity assay, pea chloroplast enzyme; type: biochemical; conditions: read-out: 50% inhibition of ACCase activity
T4 construct: the enzyme from pea chloroplasts is relatively resistant; from tissue; host or cells: pea chloroplasts
T4 sequence (P18823 1-590): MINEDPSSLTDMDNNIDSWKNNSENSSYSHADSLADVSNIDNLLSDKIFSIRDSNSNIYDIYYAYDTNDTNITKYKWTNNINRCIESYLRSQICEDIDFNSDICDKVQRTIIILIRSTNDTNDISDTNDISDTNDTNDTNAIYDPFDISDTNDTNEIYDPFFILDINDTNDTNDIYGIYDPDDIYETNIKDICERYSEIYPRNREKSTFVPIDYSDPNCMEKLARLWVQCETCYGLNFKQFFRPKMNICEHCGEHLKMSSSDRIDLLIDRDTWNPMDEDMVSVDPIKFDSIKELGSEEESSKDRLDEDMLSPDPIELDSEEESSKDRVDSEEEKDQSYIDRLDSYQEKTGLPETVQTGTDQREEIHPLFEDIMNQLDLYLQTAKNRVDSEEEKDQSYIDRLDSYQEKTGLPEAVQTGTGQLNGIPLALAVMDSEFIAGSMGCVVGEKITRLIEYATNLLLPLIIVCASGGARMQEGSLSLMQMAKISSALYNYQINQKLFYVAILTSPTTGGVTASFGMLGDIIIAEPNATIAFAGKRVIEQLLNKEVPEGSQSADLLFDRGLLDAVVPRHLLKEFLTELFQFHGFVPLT
T4 sequence (Q41008 51-875): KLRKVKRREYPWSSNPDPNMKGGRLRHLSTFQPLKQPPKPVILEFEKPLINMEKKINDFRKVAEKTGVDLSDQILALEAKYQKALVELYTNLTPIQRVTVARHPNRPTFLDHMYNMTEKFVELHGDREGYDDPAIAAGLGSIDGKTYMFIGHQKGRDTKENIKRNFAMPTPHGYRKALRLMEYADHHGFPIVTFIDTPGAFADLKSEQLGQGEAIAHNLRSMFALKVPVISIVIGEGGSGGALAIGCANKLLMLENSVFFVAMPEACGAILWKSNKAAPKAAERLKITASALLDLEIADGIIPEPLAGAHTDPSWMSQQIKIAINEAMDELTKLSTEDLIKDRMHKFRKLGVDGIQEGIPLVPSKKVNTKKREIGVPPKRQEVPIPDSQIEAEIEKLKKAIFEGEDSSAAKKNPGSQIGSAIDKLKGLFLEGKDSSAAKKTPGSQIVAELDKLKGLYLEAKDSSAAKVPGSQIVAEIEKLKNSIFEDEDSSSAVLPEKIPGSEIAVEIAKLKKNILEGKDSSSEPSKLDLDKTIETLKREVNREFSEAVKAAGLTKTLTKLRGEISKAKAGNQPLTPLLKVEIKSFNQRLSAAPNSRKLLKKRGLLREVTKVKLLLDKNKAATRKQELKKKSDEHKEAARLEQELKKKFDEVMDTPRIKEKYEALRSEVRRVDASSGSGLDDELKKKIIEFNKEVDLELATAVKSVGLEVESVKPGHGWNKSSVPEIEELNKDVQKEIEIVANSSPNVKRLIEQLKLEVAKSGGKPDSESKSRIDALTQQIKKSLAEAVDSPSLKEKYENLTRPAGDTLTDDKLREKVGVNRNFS

[7] = target: T3, wheat plastid ACCase (wheat germ extract); conditions: shown previously (Gornicki and Haselkorn, 1993); cited from earlier work
[8] = system: wheat seedling leaves (ACCase, fatty acid synthesis); experiment: In vivo incorporation of 14C-acetate into fatty acids in cut wheat seedling leaves; parameters: species or system wheat (Triticum aestivum cv. Era); conditions: Triticum aestivum; freshly cut wheat seedling leaves, 4-6 h; read-out: 50% inhibition of in vivo incorporation of 14C-acetate into fatty acids
Procedure: For the in vivo assay of ACCase activity, 2-week old seedlings of wheat (Triticum aestivum cv. Era) were cut about 1 cm below the first leaf and transferred to a 1.5 ml micro tube containing ^14 C-sodium acetate and haloxyfop (Tris salt) for 4-6 h. The leaves were then cut into small pieces and treated with 0.5 ml of 40% KOH for 1 h at 70° C., and then with 0.3 ml of H2 SO4 and 20 μl of 30% TCA on ice. Fatty acids were extracted with three 0.5 ml aliquots of petroleum ether. The organic phase was washed with 1 ml of water. Incorporation of ^14 C-acetate into fatty acids is expressed as the percentage of the total radioactivity taken up by the seedlings. present in the organic phase.

T3 sequence (O48959 1-2311): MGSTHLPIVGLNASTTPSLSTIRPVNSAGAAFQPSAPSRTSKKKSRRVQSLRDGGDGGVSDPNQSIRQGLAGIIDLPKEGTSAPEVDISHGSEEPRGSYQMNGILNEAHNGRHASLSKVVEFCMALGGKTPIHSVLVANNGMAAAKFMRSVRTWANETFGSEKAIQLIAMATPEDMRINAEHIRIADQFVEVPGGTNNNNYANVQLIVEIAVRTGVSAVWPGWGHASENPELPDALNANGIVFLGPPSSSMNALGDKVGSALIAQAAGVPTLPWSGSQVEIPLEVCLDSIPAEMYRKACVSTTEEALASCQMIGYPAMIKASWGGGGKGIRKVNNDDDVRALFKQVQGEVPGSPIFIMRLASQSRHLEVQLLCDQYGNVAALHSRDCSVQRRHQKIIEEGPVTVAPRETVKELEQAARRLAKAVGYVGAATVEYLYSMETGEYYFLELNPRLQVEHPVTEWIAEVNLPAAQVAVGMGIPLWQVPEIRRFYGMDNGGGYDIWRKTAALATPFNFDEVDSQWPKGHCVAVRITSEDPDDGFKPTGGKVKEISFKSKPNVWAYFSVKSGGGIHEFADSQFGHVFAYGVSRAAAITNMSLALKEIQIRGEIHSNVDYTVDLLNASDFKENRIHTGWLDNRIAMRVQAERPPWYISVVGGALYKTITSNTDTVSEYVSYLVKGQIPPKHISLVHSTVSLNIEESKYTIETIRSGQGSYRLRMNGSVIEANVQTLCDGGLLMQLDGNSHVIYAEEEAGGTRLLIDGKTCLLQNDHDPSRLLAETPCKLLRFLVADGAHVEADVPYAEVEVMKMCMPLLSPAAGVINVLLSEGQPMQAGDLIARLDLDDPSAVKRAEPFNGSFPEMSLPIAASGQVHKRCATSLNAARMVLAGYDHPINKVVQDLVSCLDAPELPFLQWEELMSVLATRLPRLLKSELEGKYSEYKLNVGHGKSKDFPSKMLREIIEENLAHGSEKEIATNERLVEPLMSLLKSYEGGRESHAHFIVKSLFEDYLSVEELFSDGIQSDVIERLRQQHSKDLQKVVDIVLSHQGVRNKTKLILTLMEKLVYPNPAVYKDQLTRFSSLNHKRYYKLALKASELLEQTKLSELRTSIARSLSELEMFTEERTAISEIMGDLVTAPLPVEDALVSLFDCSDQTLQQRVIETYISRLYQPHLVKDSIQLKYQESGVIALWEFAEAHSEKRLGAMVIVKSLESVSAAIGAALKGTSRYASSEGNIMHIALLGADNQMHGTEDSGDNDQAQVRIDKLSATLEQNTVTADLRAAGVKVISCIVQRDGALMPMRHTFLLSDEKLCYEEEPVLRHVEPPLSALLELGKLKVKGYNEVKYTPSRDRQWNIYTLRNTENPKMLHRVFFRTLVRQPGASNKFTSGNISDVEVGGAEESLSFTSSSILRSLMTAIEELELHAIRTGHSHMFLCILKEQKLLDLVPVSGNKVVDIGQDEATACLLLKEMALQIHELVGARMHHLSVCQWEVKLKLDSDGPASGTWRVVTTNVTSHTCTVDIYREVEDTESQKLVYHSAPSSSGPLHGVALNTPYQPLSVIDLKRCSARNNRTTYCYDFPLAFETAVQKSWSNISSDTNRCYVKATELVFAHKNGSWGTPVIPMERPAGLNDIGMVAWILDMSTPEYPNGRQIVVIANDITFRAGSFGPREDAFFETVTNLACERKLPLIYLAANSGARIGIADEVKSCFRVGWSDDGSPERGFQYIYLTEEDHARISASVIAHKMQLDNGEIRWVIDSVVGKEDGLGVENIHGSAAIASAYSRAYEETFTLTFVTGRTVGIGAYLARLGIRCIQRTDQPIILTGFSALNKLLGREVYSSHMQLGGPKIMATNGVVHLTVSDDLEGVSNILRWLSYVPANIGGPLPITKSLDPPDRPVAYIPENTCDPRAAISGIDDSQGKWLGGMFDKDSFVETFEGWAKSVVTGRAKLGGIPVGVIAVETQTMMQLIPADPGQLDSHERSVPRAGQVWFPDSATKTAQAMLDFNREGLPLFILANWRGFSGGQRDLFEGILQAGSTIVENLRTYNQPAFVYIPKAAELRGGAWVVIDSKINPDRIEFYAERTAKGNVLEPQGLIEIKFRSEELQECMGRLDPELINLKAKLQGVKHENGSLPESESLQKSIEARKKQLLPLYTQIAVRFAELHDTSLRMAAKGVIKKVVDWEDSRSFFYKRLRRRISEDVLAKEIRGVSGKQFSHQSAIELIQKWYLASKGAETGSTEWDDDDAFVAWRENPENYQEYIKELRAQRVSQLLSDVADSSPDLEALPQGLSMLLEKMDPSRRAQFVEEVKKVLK
T1 sequence (Q38970 whole entry): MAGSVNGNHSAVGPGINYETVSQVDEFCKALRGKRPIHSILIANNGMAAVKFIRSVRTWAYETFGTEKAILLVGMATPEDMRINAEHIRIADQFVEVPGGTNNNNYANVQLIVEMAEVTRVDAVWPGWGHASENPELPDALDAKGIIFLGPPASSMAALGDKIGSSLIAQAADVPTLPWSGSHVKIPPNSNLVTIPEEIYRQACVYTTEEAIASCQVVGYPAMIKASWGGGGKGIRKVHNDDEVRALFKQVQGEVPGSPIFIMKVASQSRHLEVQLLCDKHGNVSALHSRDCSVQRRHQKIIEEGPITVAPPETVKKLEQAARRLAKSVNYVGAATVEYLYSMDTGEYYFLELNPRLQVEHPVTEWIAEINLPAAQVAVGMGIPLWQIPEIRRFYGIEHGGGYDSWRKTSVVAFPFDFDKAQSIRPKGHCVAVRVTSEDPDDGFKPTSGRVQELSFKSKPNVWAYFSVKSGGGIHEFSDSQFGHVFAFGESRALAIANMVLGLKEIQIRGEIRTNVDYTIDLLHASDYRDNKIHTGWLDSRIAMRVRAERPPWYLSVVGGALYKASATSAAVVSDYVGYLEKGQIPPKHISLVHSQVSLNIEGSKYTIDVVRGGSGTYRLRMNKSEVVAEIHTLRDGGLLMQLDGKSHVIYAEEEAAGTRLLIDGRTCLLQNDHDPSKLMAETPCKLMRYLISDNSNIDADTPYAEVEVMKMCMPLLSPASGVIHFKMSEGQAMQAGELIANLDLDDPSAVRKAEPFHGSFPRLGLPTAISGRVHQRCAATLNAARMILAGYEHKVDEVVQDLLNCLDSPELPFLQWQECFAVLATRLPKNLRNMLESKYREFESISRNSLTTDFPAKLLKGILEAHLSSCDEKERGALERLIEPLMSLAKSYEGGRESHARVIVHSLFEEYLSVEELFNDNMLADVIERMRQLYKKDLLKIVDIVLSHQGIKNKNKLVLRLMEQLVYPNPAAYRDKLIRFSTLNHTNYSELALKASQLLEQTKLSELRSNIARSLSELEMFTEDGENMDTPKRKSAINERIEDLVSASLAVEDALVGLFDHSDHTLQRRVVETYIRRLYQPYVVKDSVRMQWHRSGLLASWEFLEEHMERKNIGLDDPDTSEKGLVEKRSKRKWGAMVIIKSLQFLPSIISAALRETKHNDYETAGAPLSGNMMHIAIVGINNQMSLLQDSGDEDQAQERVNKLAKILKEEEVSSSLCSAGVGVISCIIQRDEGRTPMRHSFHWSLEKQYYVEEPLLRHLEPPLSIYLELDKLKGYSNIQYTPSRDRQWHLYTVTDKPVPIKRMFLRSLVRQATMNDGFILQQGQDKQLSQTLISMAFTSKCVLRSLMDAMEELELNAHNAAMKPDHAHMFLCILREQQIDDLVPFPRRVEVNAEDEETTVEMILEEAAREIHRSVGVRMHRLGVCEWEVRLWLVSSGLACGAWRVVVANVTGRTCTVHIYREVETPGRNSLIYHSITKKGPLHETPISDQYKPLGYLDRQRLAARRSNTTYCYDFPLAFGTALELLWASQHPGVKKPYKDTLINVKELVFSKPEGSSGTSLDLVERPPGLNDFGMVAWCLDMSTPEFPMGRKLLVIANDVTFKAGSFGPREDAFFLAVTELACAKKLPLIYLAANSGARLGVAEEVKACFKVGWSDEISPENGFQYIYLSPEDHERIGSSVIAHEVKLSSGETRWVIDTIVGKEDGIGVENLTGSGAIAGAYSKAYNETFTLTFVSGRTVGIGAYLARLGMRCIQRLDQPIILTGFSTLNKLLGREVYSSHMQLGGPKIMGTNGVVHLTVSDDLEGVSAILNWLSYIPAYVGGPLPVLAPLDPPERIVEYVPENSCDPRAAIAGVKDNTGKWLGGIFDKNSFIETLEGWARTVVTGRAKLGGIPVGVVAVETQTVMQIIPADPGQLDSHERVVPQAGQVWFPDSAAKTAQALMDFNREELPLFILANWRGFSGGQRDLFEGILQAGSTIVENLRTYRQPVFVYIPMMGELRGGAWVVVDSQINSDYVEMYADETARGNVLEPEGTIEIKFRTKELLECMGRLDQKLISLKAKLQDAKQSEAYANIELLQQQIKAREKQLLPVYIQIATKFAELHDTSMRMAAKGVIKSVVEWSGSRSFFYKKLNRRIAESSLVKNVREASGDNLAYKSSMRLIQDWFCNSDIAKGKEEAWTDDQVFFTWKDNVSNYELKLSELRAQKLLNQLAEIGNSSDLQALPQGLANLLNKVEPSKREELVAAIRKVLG

| SMILES | in vitro inhibition of ACCase activity [1] | effect on growth of gene-replacement strain (in vivo) [2] | in vitro inhibition of ACCase activity (yeast ACCase) | in vitro inhibition of ACCase activity [3] | growth at 800 μM ([2]; MJ 1.12, 800 μM inhibitor) | IC50 ([2]; Saccharomyces cerevisiae, MJ 1.12, YPR medium with 0.01% galactose, A600 24 hrs after inoculation, read-out: 50% inhibition of growth) | growth at 800 μM [4] | inhibition of ACCase activity [5] | IC50 [6] | sensitivity of ACCase activity to inhibitor [7] | IC50 [8] |
| --- | --- | --- | --- | --- | --- | --- | --- | --- | --- | --- | --- |
| CCC/C(=N\OCC)C1=C(O)CC(CC(C)SCC)CC1=O (stereo not shown) [Sethoxydim] | does not inhibit | no effect | does not inhibit | weakest inhibitor | – | – | – | – | – | – | – |
| CCC(=NOCC=CCl)C1C(=O)CC(C2(SC)CC2)CC1=O (stereo not shown) [cethoxydim, Cethoxydim] | moderately inhibits | completely inhibits growth | although not completely resistant, is less sensitive | much stronger inhibitor | does not grow at all | ~20 µM | unaffected | – | – | – | – |
| CC(Oc1ccc(Oc2ccc(C(F)(F)F)cn2)cc1)C(=O)O (stereo not shown) [fiuazifop, fluazifop] | – | – | – | – | – | – | – | not inhibited | – | – | – |
| CC(Oc1ccc(Oc2ncc(C(F)(F)F)cc2Cl)cc1)C(=O)O (stereo not shown) [haloxyfop] | – | no effect | – | – | – | – | – | – | > 50 µM | highly sensitive | < 1 µM |
